A word on the EC50: it is the concentration at which the effect is half-maximal. Usually IC50 stands for the concentration needed to halve the response being measured. A word on the CC50: it is the concentration that lowers cell viability or growth by half. For orientation: AC50 means the concentration at which the activity in the assay is half-maximal.

In assay [1] the test system is HEK293. In words: optical interference in Abeta FP readout, dose response, artefact control for IDE activator project, biochemical, fluorescence polarization (AID 588442). It is filed as functional, cell-based. The note with it: Homo sapiens.
Assay [2] addresses T1, Insulin-degrading enzyme (Homo sapiens, UniProt P14735).
T1 sequence (P14735 whole entry): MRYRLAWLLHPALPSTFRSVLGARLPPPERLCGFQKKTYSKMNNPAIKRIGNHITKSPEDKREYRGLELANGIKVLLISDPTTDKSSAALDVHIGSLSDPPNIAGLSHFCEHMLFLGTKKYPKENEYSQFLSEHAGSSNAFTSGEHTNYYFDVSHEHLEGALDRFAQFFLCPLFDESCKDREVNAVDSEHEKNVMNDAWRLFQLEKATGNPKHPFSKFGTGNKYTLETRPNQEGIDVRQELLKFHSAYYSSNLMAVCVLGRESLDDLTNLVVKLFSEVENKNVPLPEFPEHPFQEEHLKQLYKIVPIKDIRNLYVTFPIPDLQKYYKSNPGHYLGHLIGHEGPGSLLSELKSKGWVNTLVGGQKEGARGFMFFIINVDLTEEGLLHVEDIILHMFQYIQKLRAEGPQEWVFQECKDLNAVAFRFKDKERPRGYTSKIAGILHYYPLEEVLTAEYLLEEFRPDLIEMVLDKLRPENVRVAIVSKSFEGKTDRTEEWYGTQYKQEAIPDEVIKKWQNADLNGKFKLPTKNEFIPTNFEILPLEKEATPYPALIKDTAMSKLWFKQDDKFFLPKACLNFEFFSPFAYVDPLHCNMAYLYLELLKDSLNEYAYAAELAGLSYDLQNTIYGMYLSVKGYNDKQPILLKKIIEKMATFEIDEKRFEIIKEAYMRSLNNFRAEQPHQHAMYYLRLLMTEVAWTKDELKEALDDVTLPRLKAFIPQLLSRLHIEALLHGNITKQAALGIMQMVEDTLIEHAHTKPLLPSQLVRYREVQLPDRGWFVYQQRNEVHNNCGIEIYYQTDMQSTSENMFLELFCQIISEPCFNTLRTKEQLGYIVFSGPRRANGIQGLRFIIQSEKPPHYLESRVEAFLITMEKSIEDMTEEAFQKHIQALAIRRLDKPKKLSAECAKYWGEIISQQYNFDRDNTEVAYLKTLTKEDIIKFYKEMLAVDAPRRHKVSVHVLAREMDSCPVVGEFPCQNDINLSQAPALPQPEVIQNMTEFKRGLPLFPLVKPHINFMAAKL
Put plainly: activators of recombinant IDE enzyme, dose response, counter-screen for IDE activator project, biochemical, fluorescence polarization (AID 588681). On the technique in general: A counterscreen serves to expose hits that act by an unwanted route or on another target.

Assay [3] concerns the target T1, Insulin-degrading enzyme. In words: activators of endogenous IDE in HEK cells, dose response, cell-based, fluorescence polarization (AID 588439). It is filed as functional.
Assay [4] relates to HEK293. In words: HEK cell cytotoxicity by LDH release, dose response, cytotoxicity control for IDE activator project, fluorescence, HEK cells (AID 588440).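 Further: cytotoxicity by LDH release measuring loss of membrane integrity.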 It is filed as functional, cell-based. The note with it: Homo sapiens. A general note: Release of lactate dehydrogenase indicates damage to the cell membrane.
Assay [5] addresses T2, Hepatocyte nuclear factor 4-alpha (Homo sapiens, UniProt P41235).
T2 sequence (P41235 whole entry): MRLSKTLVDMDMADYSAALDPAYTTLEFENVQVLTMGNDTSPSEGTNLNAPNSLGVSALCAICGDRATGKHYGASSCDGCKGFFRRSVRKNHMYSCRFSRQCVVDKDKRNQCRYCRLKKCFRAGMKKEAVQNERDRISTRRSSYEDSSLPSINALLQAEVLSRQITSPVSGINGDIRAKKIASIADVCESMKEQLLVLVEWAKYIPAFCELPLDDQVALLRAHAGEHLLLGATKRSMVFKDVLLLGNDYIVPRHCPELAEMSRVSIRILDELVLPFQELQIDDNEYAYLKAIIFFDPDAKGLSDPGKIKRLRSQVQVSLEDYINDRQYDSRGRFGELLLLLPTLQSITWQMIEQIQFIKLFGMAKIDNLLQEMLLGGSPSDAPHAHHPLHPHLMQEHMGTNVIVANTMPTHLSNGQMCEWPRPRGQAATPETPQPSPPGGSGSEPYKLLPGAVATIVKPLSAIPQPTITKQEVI
It is filed as functional, cell-based.

Another assay deals with Vero. Put plainly: Vero cell cytotoxicity, cytotoxicity control for flavivirus capping enzyme inhibitors (AID 588742). It is filed as functional. Conditions: Chlorocebus sabaeus.
Assay [6] concerns the target T3, Sentrin-specific protease 7 (Homo sapiens, UniProt Q9BQF6).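 Further: Luminescence-based dose-response confirmation of ultra-high-throughput screening hits, measuring inhibition of SENP7.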
T3 sequence (Q9BQF6 whole entry): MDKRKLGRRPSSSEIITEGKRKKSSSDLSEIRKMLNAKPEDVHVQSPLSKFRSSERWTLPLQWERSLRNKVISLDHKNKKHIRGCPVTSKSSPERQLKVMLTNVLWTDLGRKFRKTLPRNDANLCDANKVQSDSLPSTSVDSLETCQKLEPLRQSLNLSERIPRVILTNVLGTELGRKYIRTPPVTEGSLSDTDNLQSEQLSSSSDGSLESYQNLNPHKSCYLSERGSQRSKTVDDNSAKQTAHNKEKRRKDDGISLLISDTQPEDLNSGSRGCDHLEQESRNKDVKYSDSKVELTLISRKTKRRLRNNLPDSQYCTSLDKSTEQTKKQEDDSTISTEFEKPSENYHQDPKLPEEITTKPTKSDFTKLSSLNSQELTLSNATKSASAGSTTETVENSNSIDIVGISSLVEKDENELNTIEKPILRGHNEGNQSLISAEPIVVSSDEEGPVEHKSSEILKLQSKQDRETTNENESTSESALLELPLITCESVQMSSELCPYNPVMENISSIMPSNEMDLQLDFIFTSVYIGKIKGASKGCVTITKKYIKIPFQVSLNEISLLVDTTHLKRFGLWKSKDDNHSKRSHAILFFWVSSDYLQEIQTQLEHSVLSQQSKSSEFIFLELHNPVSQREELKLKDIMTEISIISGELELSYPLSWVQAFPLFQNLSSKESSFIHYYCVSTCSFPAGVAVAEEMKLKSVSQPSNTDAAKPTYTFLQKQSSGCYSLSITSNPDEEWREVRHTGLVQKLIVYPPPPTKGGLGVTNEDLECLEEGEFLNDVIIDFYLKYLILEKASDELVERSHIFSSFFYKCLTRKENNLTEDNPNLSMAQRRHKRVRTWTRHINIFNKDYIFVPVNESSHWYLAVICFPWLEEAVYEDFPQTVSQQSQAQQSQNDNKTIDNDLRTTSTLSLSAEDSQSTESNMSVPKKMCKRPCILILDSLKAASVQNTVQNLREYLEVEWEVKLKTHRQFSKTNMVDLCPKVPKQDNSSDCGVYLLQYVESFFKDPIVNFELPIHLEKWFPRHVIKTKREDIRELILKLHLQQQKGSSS
Format: functional.

The target of assay [7] is T4, Sentrin-specific protease 6 (Homo sapiens, UniProt Q9GZR1).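 Further: Luminescence-based dose-response confirmatory assay of SENP6 inhibition, following up an ultra-high-throughput screen.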
T4 sequence (Q9GZR1 whole entry): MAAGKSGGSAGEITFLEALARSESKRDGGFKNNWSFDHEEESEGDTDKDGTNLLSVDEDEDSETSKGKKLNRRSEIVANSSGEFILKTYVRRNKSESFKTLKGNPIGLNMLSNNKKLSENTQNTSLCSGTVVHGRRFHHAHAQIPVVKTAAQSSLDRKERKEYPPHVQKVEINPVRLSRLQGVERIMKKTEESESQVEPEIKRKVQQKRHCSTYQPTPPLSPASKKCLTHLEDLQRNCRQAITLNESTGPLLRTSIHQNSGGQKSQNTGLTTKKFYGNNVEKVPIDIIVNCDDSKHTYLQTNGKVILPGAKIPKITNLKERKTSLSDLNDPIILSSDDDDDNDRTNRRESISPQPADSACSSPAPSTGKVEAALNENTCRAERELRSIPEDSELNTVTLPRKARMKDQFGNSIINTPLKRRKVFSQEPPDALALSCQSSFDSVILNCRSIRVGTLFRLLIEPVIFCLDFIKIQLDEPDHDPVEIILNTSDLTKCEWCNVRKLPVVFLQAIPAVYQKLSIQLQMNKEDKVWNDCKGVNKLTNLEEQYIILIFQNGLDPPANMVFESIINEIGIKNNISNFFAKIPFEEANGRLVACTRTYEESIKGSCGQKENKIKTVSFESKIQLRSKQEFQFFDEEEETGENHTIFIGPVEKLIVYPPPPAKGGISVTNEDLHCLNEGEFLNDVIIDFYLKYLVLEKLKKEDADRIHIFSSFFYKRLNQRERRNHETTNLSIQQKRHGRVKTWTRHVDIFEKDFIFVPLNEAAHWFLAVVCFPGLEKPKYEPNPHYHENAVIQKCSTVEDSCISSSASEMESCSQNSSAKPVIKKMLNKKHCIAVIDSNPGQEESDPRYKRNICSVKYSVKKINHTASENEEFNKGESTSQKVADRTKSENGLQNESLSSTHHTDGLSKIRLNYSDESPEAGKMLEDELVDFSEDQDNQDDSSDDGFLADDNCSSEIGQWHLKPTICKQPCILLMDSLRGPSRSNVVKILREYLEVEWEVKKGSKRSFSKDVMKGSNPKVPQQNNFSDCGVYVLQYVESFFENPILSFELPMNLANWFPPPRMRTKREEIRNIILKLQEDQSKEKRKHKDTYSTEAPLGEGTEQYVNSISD
Format: functional.

A further assay addresses T5, Caspase-3 (Homo sapiens, UniProt P42574).
T5 sequence (P42574 whole entry): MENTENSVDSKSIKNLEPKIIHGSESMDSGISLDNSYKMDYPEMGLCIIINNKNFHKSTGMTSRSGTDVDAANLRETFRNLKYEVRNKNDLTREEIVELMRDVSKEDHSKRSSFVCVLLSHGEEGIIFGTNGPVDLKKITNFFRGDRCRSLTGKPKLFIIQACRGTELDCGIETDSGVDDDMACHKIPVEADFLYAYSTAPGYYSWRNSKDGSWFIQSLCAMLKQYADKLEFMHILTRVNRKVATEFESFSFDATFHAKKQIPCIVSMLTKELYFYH
Format: functional.

Assay [8] concerns the target T6, Sentrin-specific protease 8 (Homo sapiens, UniProt Q96LD8).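 Further: luminescence read-out of SENP8 inhibition, dose-response confirmation following an ultra-high-throughput screen.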
T6 sequence (Q96LD8 whole entry): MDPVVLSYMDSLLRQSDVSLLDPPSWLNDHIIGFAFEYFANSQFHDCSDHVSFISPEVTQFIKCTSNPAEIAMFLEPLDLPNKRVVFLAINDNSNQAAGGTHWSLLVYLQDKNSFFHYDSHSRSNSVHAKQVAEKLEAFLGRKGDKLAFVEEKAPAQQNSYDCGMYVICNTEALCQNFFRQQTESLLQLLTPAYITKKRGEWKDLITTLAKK
Format: functional.

Assay [9] can be described thus: Luminescence Cell-Based Dose Retest to Confirm Inhibitors of Cancer Stem Cells. [Related pubchem assays (depositor defined):AID2717, AID2721]. Format: functional. The note with it: Homo sapiens.
In a further assay the target is Genome polyprotein (dengue virus type 2, UniProt P29990). In words: Dengue-2 NS5 methyltransferase inhibitors, primary screen, biochemical, confirmation dose response (AID 588689). It is filed as functional.

The source made the active and inactive calls.
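Wherever AC50 is given: cells exposed to compound for roughly 70 hours or longer before luminescence read.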

Sequence of Genome polyprotein (P29990 2492-3391 limits assumed): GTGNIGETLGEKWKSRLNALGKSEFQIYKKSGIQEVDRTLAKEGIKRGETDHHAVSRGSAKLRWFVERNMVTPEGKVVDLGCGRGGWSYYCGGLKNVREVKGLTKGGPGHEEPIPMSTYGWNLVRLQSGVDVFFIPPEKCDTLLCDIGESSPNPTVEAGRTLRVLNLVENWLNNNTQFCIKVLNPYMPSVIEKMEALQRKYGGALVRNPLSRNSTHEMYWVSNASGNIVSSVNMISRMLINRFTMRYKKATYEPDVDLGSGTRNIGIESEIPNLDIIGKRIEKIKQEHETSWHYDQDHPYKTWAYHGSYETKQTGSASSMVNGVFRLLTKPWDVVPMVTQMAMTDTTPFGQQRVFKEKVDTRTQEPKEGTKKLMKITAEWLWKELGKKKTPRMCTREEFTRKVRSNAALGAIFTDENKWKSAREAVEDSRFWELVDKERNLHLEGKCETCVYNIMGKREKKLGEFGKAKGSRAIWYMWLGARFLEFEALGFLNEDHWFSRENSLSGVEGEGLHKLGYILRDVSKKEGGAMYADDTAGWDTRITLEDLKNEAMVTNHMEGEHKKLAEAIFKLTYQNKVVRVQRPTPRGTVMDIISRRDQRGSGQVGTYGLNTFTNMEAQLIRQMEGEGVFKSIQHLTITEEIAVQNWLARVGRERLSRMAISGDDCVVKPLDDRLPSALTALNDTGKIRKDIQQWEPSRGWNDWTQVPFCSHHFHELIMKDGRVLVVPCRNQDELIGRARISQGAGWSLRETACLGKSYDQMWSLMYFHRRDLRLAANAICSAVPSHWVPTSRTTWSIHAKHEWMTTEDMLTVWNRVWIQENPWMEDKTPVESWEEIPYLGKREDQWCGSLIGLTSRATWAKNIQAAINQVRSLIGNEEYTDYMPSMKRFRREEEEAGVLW

In the case of `OC(CNC1CCCCC1)C(F)(F)F` (configuration not stated), the EC50 was > 55.9 µM (inactive) in the assay with HEK293 [1], > 54.7 µM (inactive) at Insulin-degrading enzyme [2] and > 54.7 µM (inactive) on Insulin-degrading enzyme [3]. Besides, the IC50 in the assay on HEK293 [4] was > 89.1 µM (inactive).

As to `CCN(c1ccccc1)S(=O)(=O)c1ccc(N2CCN(c3ccc(OC)cc3)CC2)nc1`, the values for the EC50 in the assay with HEK293 [1], on Insulin-degrading enzyme [2] and at Insulin-degrading enzyme [3] were > 55.9 µM (inactive), > 54.7 µM (inactive) and > 54.7 µM (inactive), respectively. Also, the IC50 in the assay on HEK293 [4] was > 89.2 µM (inactive).

On to `O=C(NCc1ccccc1)C(c1ccccc1)n1c(=O)c(-c2ccco2)nc2ccccc21` (configuration not stated), for which the IC50 in [5] is 2.93 µM (active).

Take `COc1ccc(NC(=O)c2cc3ccccc3cc2O)cc1`: the CC50 with Vero was 34.6 µM (active). The IC50 in assay [6] was 5.51 µM (active); in assay [7], 72.6 µM (active); at Caspase-3, 20.7 µM (active); in assay [8], > 100 µM (inactive); in [5], 10 µM (inactive); on Genome polyprotein it was > 100 µM (active). In addition, the AC50 in assay [9] was 6.04 µM (active).

The record behind these values is ChEMBL document CHEMBL1201862, “PubChem BioAssay data set” (2004).
